Experiment [1] is described as follows: Isothermal titration calorimetry (ITC) glucose binding assay. The conditions noted are these: ITC binding isotherm, read-out: binding affinity (Kd). The protocol: Binding studies were then carried out using isothermal titration calorimetry (ITC) to measure thermodynamic properties during binding. ITC was chosen as the preferred method to confirm binding of glucose as this assay excludes the possibilities of any false positive data. The ITC based binding assay needed significant optimization with respect to macromolecule concentration, choice of buffer, ways of desalting, concentration of the glucose solution, etc.

The conditions of experiment [2]: unmodified cyclodextrin with adamantine (AD), comparison statement; cited from earlier work.

What is called pKd is −log10 of the Kd, conventionally taken in molar units.

pKd: −log10 of the molar value.

Consider `OCC1O[C@@H]2O[C@@H]3C(CO)O[C@H](O[C@@H]4C5CSCc6ccc(cc6)-c6ccc(cc6)CSCC6O[C@H](O[C@@H]7C(CO)O[C@H](O[C@H]1C(O)C2O)C(O)C7O)C(O)C(O)[C@@H]6O[C@H]1OC(CO)[C@@H](O[C@H]2OC(CO)[C@@H](O[C@@H](O5)C(O)C4O)C(O)C2O)C(O)C1O)C(O)C3O` (some centres unmarked) [CDC1], for which the pKd in experiment [1] is approximately 2.30. For cyclodextrin, the dissociation constant entry in experiment [2] was “micromolar range”.
